Assay results taken from EP4635944A1, “2-AZABICYCLO[3.1.1]HEPTANE COMPOUND” (Daiichi Sankyo Company, Limited, priority 2022, dated 2024).

Key:
human OX2R = target: T1, human OX2R (Homo sapiens, UniProt O43614); test: Evaluation of OX2R agonist activity (intracellular calcium, CHO-K1 cells with forced expression of human OX2R); type: cell-based; conditions: CHO-K1 cells expressing human OX2R; 100% = 5 µM of the reference compound; read-out: hOX2R EC50
T1 construct: host or cells: CHO-K1 (Chinese Hamster Ovary K1)
T1 sequence (O43614 1-444): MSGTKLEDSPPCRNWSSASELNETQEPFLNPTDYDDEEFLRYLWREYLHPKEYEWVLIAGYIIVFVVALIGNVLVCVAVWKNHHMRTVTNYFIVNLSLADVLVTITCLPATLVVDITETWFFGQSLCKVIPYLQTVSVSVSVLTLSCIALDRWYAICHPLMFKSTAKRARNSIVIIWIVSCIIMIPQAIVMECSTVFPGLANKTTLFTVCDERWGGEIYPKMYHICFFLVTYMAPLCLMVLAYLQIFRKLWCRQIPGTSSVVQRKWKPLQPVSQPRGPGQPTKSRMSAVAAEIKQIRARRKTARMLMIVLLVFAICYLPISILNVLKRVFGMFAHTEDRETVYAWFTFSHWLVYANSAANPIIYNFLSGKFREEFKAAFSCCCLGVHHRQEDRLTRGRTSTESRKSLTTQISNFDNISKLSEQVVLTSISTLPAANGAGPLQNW
Method in brief: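 Cells seeded 7500/well, cultured 24 h, loaded with Fluo 4-AM (2.5 µg/mL final) plus probenecid for 30 min. Calcium response read as 480/540 nm excitation ratio; max–min signal 5–7 s after compound addition, normalized to buffer (0%) and 5 µM reference agonist (100%). EC50 from concentration series; 0.5% DMSO final.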

[1] = Evaluation of ERM production (GSH adduct detection in human liver microsomes); type: in vitro ADME; conditions: test compound 500 µM, human liver microsomes 2 mg/mL, GSH/SI-GSH, 37°C for 60 minutes; negative = no metabolite GSH adduct pair peak
Description: Evaluation of ERM production from OX2R agonist
The test compound (final concentration was 500 µM, dissolved in DMSO/acetonitrile = 1/9), pooled human liver microsomes (final concentration was 2 mg/mL), L-glutathione reduced (GSH, final concentration was 0.5 mM), potassium phosphate buffer (pH 7.4, final concentration was 100 mM), and stable isotope labeled GSH (SI-GSH, final concentration was 0.5 mM) were admixed and preincubated at 37°C for 3 minutes. Thereafter, a mixed solution of glucose-6-phosphate (final concentration was 25 mM), β-nicotinamide adenine dinucleotide phosphate (final concentration was 0.25 mM), glucose-6-phosphate dehydrogenase (final concentration was 2 U/mL), and magnesium chloride (final concentration was 10 mM) was added, and incubation was performed at 37°C for 60 minutes. After the incubation, the reaction was stopped by adding a 2-fold volume of acetonitrile. A portion of the supernatant after centrifugation (about 1200 × g, 4°C, 15 minutes) was injected into a liquid chromatograph quadrupole time-of-flight mass spectrometer (Q-Tof) for analysis. The mass number of metabolites, GSH adduct and SI-GSH adduct, predicted from the chemical structural formula of the test compound was calculated, and the presence of the corresponding peaks in the measurement sample was checked. Peaks with the same retention time and approximately equal peak area of the detected peaks of the metabolites, GSH adduct and SI-GSH adduct, were extracted as pair peaks. The presence of a pair peak determined to be a metabolite GSH adduct was considered positive for ERM production potential, whereas the absence of such a peak was considered negative for ERM production potential.

[2] = Evaluation of metabolic stability in human liver microsomes; type: in vitro ADME; conditions: for metabolic stability compared to the corresponding compounds that were not deuterated: human liver microsomes, 30 minutes, deuterated at specific positions; for Human metabolic stability Residual ratio (%): test compound 1 µM, human liver microsomes 0.5 mg/mL, 30 minutes at 37°C
Description: Evaluation of metabolic stability of OX2R agonist
The test compound (final concentration was 1 µM, dissolved in DMSO/acetonitrile = 1/99), pooled human liver microsomes (final concentration was 0.5 mg/mL), and sodium phosphate buffer (pH 7.4, final concentration was 100 mM) were admixed and preincubated at 37°C for 15 minutes. Thereafter, a mixed solution of glucose-6-phosphate (final concentration was 10 mM), glucose-6-phosphate dehydrogenase (final concentration was 1 U/mL), and magnesium chloride (final concentration was 3.3 mM) was added and a certain amount of the mixture was collected. Then, an acetonitrile/methanol mixed solution (75/25, v/v) containing a 4.5-fold volume of internal standard substances (final concentrations: phenacetin: 1 ng/mL, niflumic acid: 15 ng/mL, furosemide: 20 ng/mL) was added to stop the reaction (0 min sample). Subsequently, β-nicotinamide adenine dinucleotide phosphate (final concentration was 1 mM) was added, and after 30 minutes of incubation at 37°C, a certain amount of the mixture was collected, to which an acetonitrile/methanol mixed solution (75/25, v/v) containing a 4.5-fold volume of the internal standard substances was added to stop the reaction (30 min sample). For both samples, a portion of the supernatant after centrifugation (about 1200 × g, 4°C, 15 minutes) was injected into a liquid chromatograph tandem quadrupole mass spectrometer (LC-MS/MS) for analysis. The metabolic stability was evaluated by comparing the test compound/internal standard substance ratio of the 30 min sample with the 0 min sample and calculating the residual ratio of the test compound. […]

SMILES	EC50 (human OX2R)	ERM production potential [1]	Human metabolic stability Residual ratio (%) [2]	metabolic stability compared to the corresponding compounds that were not deuterated [2]
CC(C)(O)C(=O)N1C2CC(F)(C2)[C@H](NS(C)(=O)=O)[C@@H]1Cc1cc(F)cc(-c2ccccc2)c1F [Example 74, N-[(3S,4R)-3-[(2,5-Difluoro[biphenyl]-3-yl)methyl]-5-fluoro-2-(2-hydroxy-2-methylpropanoyl)-2-azabicyclo[3.1.1]heptan-4-yl]methanesulfonamide]	72 nM	negative	–	–
[2H]C([2H])([2H])C([2H])(O)C(=O)N1C2CC(F)(C2)C(NS(=O)(=O)CC)C1Cc1cc(F)cc(-c2ccccc2)c1F (single isomer, unassigned) [Example 95, N-{3-[(2,5-Difluoro[biphenyl]-3-yl)methyl]-5-fluoro-2-[2-hydroxy(^2H4)propanoyl]-2-azabicyclo[3.1.1]heptan-4-yl}ethanesulfonamide]	19 nM	–	52%	improved metabolic stability
C[C@@H](O)C(=O)N1C2CC(F)(C2)[C@H](NS(C)(=O)=O)[C@@H]1Cc1cc(F)cc(-c2ccccc2)c1F [Example 63, N-{(3S,4R)-3-[(2,5-Difluoro[biphenyl]-3-yl)methyl]-5-fluoro-2-[(2R)-2-hydroxypropanoyl]-2-azabicyclo[3.1.1]heptan-4-yl}methanesulfonamide]	22 nM	–	38%	–
[2H][C@](C)(O)C(=O)N1C2CC(F)(C2)[C@H](NS(C)(=O)=O)[C@@H]1Cc1cc(F)cc(-c2ccccc2)c1F [Example 100, N-{(3S,4R)-3-[(2,5-Difluoro[biphenyl]-3-yl)methyl]-5-fluoro-2-[(2R)-2-hydroxy(2-^2H)propanoyl]-2-azabicyclo[3.1.1]heptan-4-yl}methanesulfonamide]	43 nM	–	70%	improved metabolic stability
CCS(=O)(=O)NC1C(Cc2cc(F)cc(-c3ccccc3)c2F)N(C(=O)[C@@H](C)O)C2CC1(F)C2 (single isomer, unassigned) [Example 91]	39 nM	–	25%	–
CCS(=O)(=O)NC1C2CC(C2)N(C(=O)N(C)C)C1Cc1cccc(-c2cc(F)cc(F)c2)c1F (single isomer, unassigned) [Example 7, 4-[(Ethylsulfonyl)amino]-N,N-dimethyl-3-[(2,3',5'-trifluoro[biphenyl]-3-yl)methyl]-2-azabicyclo[3.1.1]heptane-2-carboxamide]	213 nM	–	–	–
CC(C)(O)C(=O)N1C2CC(C2)C(NS(=O)(=O)CF)C1Cc1cccc(-c2cc(F)cc(F)c2)c1F (single isomer, unassigned) [Example 6, 1-Fluoro-N-{2-(2-hydroxy-2-methylpropanoyl)-3-[(2,3',5'-trifluoro[biphenyl]-3-yl)methyl]-2-azabicyclo[3.1.1]heptan-4-yl}methanesulfonamide]	69 nM	–	–	–
[2H][C@](C)(O)C(=O)N1C2CC(F)(C2)[C@H](NS(C)(=O)=O)[C@@H]1Cc1cccc(-c2ccccc2)c1F [Example 99, N-{(3S,4R)-5-Fluoro-3-[(2-fluoro[biphenyl]-3-yl)methyl]-2-[(2R)-2-hydroxy(2-^2H)propanoyl]-2-azabicyclo[3.1.1]heptan-4-yl}methanesulfonamide]	27 nM	–	78%	improved metabolic stability
C[C@@H](O)C(=O)N1C2CC(F)(C2)C(NS(C)(=O)=O)C1Cc1cccc(-c2cc(F)cc(F)c2)c1F (single isomer, unassigned) [Example 23, N-{(3S,4R)-5-Fluoro-2-[(2R)-2-hydroxypropanoyl]-3-[(2,3',5'-trifluoro[biphenyl]-3-yl)methyl]-2-azabicyclo[3.1.1]heptan-4-yl}methanesulfonamide or N-{(3R,4S)-5-fluoro-2-[(2R)-2-hydroxypropanoyl]-3-[(2,3',5'-trifluoro[biphenyl]-3-yl)methyl]-2-azabicyclo[3.1.1]heptan-4-yl}methanesulfonamide]	34 nM	–	–	–

More lines, main results first:

EC50 (human OX2R)	ERM production potential [1]	Human metabolic stability Residual ratio (%) [2]	SMILES	metabolic stability compared to the corresponding compounds that were not deuterated [2]
20 nM	negative	–	[2H]C([2H])([2H])C([2H])(O)C(=O)N1C2CC(C2)C(NS(=O)(=O)CC)C1Cc1cc(F)cc(-c2ccccc2)c1F (single isomer, unassigned) [Example 92, N-{3-[(2,5-Difluoro[biphenyl]-3-yl)methyl]-2-[2-hydroxy(^2H4)propanoyl]-2-azabicyclo[3.1.1]heptan-4-yl}ethanesulfonamide]	–
88 nM	negative	–	CC(C)(O)C(=O)N1C2CC(C2)C(NS(C)(=O)=O)C1Cc1cc(F)cc(-c2ccccc2)c1F (single isomer, unassigned) [Example 59, N-[(3S,4S)-3-[(2,5-Difluoro[biphenyl]-3-yl)methyl]-2-(2-hydroxy-2-methylpropanoyl)-2-azabicyclo[3.1.1]heptan-4-yl]methanesulfonamide or N-[(3R,4R)-3-[(2,5-difluoro[biphenyl]-3-yl)methyl]-2-(2-hydroxy-2-methylpropanoyl)-2-azabicyclo[3.1.1]heptan-4-yl]methanesulfonamide]	–
19 nM	–	49%	C[C@@H](O)C(=O)N1C2CC(F)(C2)[C@H](NS(C)(=O)=O)[C@@H]1Cc1cccc(-c2ccccc2)c1F [Example 53, N-{(3S,4R)-5-Fluoro-3-[(2-fluoro[biphenyl]-3-yl)methyl]-2-[(2R)-2-hydroxypropanoyl]-2-azabicyclo[3.1.1]heptan-4-yl}methanesulfonamide]	–
19 nM	–	–	CCS(=O)(=O)N[C@@H]1[C@H](Cc2cccc(-c3ccccc3)c2F)N(C(=O)[C@@H](C)O)C2CC1(F)C2 (single isomer, unassigned) [Example 83]	–
24 nM	–	34%	C[C@@H](O)C(=O)N1C2CC(C2)[C@H](NS(C)(=O)=O)[C@@H]1Cc1cccc(-c2ccccc2)c1F [Example 25, N-{(3S,4S)-3-[(2-Fluoro[biphenyl]-3-yl)methyl]-2-[(2R)-2-hydroxypropanoyl]-2-azabicyclo[3.1.1]heptan-4-yl}methanesulfonamide]	–
38 nM	–	–	CC(C)C(=O)N1C2CC(C2)[C@H](NS(C)(=O)=O)[C@@H]1Cc1cccc(-c2ccccc2)c1F [Example 57, N-[(3S,4S)-3-[(2-Fluoro[biphenyl]-3-yl)methyl]-2-(2-methylpropanoyl)-2-azabicyclo[3.1.1]heptan-4-yl]methanesulfonamide]	–
60 nM	–	–	Cc1cccc(-c2cccc(C[C@H]3[C@@H](NS(C)(=O)=O)C4CC(C4)N3C(=O)C(C)(C)O)c2F)c1 [Example 11, N-[(3S,4S)-3-[(2-Fluoro-3'-methyl[biphenyl]-3-yl)methyl]-2-(2-hydroxy-2-methylpropanoyl)-2-azabicyclo[3.1.1]heptan-4-yl]methanesulfonamide]	–
